Measurements from the supplement of paper PMC11451515.

Test system: SEM cells
Assay: cell viability relative to DMSO control; higher = less cytotoxic
Details: 48 h
Method in brief: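 In 1536-well plates, 5 μl of leukemia cells were seeded per well: 500 cells/well for NOMO1 or SEM and 1000 cells/well for P12-Ichikawa. Each line had first been adapted for at least four passages in each medium. Library compounds in DMSO were pin-dosed at 11 threefold concentrations between 47 μM and 0.79 nM, and CellTiter-Glo One luminescence was read after 48 h at 37°C. Viability is a per-plate percentage relative to DMSO wells, with cell-free wells as background.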

[1] = HPLM + 10% dialyzed FBS, 0.000781 µM
[2] = HPLM + 10% dialyzed FBS, 0.00234 µM
[3] = HPLM + 10% dialyzed FBS, 0.00702 µM
[4] = HPLM + 10% dialyzed FBS, 0.0211 µM
[5] = HPLM + 10% dialyzed FBS, 0.0632 µM
[6] = HPLM + 10% dialyzed FBS, 0.19 µM
[7] = HPLM + 10% dialyzed FBS, 0.569 µM
[8] = HPLM + 10% dialyzed FBS, 1.71 µM
[9] = HPLM + 10% dialyzed FBS, 5.12 µM
[10] = HPLM + 10% dialyzed FBS, 15.4 µM
[11] = HPLM + 10% dialyzed FBS, 46.1 µM
[12] = RPMI 5 mM glucose + 10% FBS, 0.000781 µM
[13] = RPMI 5 mM glucose + 10% FBS, 0.00234 µM
[14] = RPMI 5 mM glucose + 10% FBS, 0.00702 µM
[15] = RPMI 5 mM glucose + 10% FBS, 0.0211 µM
[16] = RPMI 5 mM glucose + 10% FBS, 0.0632 µM
[17] = RPMI 5 mM glucose + 10% FBS, 0.19 µM
[18] = RPMI 5 mM glucose + 10% FBS, 0.569 µM
[19] = RPMI 5 mM glucose + 10% FBS, 1.71 µM
[20] = RPMI 5 mM glucose + 10% FBS, 5.12 µM
[21] = RPMI 5 mM glucose + 10% FBS, 15.4 µM
[22] = RPMI 5 mM glucose + 10% FBS, 46.1 µM
[23] = RPMI 5 mM glucose + 10% dialyzed FBS, 0.000781 µM
[24] = RPMI 5 mM glucose + 10% dialyzed FBS, 0.00234 µM
[25] = RPMI 5 mM glucose + 10% dialyzed FBS, 0.00702 µM
[26] = RPMI 5 mM glucose + 10% dialyzed FBS, 0.0211 µM
[27] = RPMI 5 mM glucose + 10% dialyzed FBS, 0.0632 µM
[28] = RPMI 5 mM glucose + 10% dialyzed FBS, 0.19 µM
[29] = RPMI 5 mM glucose + 10% dialyzed FBS, 0.569 µM
[30] = RPMI 5 mM glucose + 10% dialyzed FBS, 1.71 µM
[31] = RPMI 5 mM glucose + 10% dialyzed FBS, 5.12 µM
[32] = RPMI 5 mM glucose + 10% dialyzed FBS, 15.4 µM
[33] = RPMI 5 mM glucose + 10% dialyzed FBS, 46.1 µM

SMILES	cell viability [1]	cell viability [2]	cell viability [3]	cell viability [4]	cell viability [5]	cell viability [6]	cell viability [7]	cell viability [8]	cell viability [9]	cell viability [10]	cell viability [11]	cell viability [12]	cell viability [13]	cell viability [14]	cell viability [15]	cell viability [16]	cell viability [17]	cell viability [18]	cell viability [19]	cell viability [20]	cell viability [21]	cell viability [22]	cell viability [23]	cell viability [24]	cell viability [25]	cell viability [26]	cell viability [27]	cell viability [28]	cell viability [29]	cell viability [30]	cell viability [31]	cell viability [32]	cell viability [33]
C=C[C@H]1CN2CC[C@H]1C[C@H]2[C@H](O)c1ccnc2ccc(OC)cc12	91.2%	99.2%	93.3%	97%	106%	116%	104%	86%	125%	96.8%	74.3%	90.8%	88.7%	84%	89.7%	105%	99.2%	104%	90.7%	102%	94.5%	50.4%	85.2%	98.2%	93.4%	93.8%	92%	96.9%	80%	80.7%	90.9%	102%	70.2%
OC1CCC(Nc2ncc3nc(Nc4c(F)cc(F)cc4F)n([C@@H]4CCOC4)c3n2)CC1 (stereo partly specified)	96.4%	93.4%	99.2%	110%	118%	108%	110%	107%	125%	80.9%	91.4%	96.5%	92.9%	103%	95.7%	105%	101%	97.4%	105%	95.4%	40.9%	99.4%	90.4%	111%	114%	96.1%	112%	116%	118%	116%	100%	84.3%	87.3%
